# Data reported in patent EP0726257A1, “1-(Hetero)Arylvinyl-5H-2,3-benzodiazepine derivatives useful for the treatment of central nervous system disorders, and benzopyrylium intermediates for their preparation” (EGIS GYOGYSZERGYAR RT., priority 1995, dated 1996).
# Where two headings read alike, the source gives them in different places.
# Tests used:
# Catalepsy in rats = assay: Cataleptic effect in rats (Morpurgo); assay type: in vivo; details: p.o.
# Experimental: (§1) The cataleptic effect of the compounds was measured both in mice (Schlichtegroll: Arzneim. Forsch., 8, 489, [1958]) and in rats (Morpurgo: Arch. Int. Pharmacodyn., 137, 87, [1962]).
# rats [1] = assay: Lick-conflict test (Vogel et al.), anxiolytic activity; assay type: in vivo; details: Rattus norvegicus, po, read-out: Minimal effective dose [MED] Lick conflict
# Description: (§2) The anxiolytic activity was studied in rats according to the "lick-conflict" test elaborated by Vogel et al. (Psychopharmacology, 21, 1, [1971] and the elevated plus-maze test described by Pellow (Pellow, J.: Neurosci. Meth. 14, 149, [1985]). The antiaggressive effect was investigated in mice using the "fighting behaviour" method of Tedeschi (J. Pharm. Exp. Ther., 125, 28, [1959]). The minimal effective dose (MED) values and the ED50 values obtained are shown in the following Table V.
# Catalepsy in mice = assay: Cataleptic effect in mice (Schlichtegroll); assay type: in vivo; details: p.o.
# Experimental: as §1
# [2] = molecular target: homophthalazine binding site; assay: Displacement of 3H-girisopam from the homophthalazine binding site in rat brain striatal membrane preparation; details: displacing 5 nM 3H-girisopam
# Experimental: Ki values were calculated according to the following equation: Ki = IC50 :(1 +([L])/(KD)), [formula] wherein KD is the dissociation constant of the labelled ligand-receptor complex, [L] is the concentration of the labelled ligand and IC50 is the half maximal inhibitory concentration of the test compound.
# [3] = test system: spontaneous motor activity of mice; assay: Inhibition of spontaneous motor activity according to Borsy et al.; assay type: in vivo
# Experimental: (§3) The potential antipsychotic activity of 1-[2'-(substituted) vinyl]-5H-2,3-benzodiazepine derivatives according to the invention and of reference substances was tested according to the method of Puech et al. (Psychopharmacology, 75, 84, [1981] by measuring their inhibiting effect on the "climbing" reaction induced by 5,6,6a,7-tetra-(hydro)-6-(methyl)-4H-dibenzo[de,g]quinoline-10,11-di-(ol){apomorphine}. The results have been expressed as ED50 values. Since the inhibition of the spontaneous motor activity (SMA) is an important characteristic of the antipsychotic drugs, the ED50 values of a number of compounds were determined according to the method of Borsy et al. (Arch. Int. Pharmacodyn., 124, 1, 196).
# The effect of the 1-[2'-(substituted) vinyl]-5H-2,3-benzodiazepine derivatives according to the invention on the spontaneous motor activity was tested according to the method of Borsy et al. Groups consisting of 3 mice were treated orally with different doses of the compounds to be tested. Then the animals were placed into a 10-channel Dews system equipment, wherein the number of interruptions of infrared beam within 30 minutes was counted. […]
# [4] = test system: spontaneous motor activity (SMA) in mice; assay: Behavioural effects according to Irwin (decrease in spontaneous motor activity); assay type: in vivo; set-up: key: ++ strong; + moderate; +- slight decrease in spon-taneous motor activity [SMA]
# Experimental: (§4) The behavioural effects of 1-[2'-(substituted) vinyl]-5H-2,3-benzodiazepine derivatives according to the invention and of reference substances were measured according to the method of Irwin (Psychopharmacology, 13, 222 [1968]). The results and the acute toxicity data (dead/treated animals, shown in brackets) can be seen in the following Table II
# (§5) From the above Table II it can be taken that the 1-[2'-(substituted) vinyl]-5H-2,3-benzodiazepine derivatives according to the invention considerably decrease the spontaneous motor activity (SMA) in mice after intraperitoneal or oral administration.
# mice [5] = assay: Acute toxicity (dead/treated animals) in the Irwin test; assay type: in vivo
# Experimental: as §4, §5
# [6] = test system: "climbing" reaction induced by 5,6,6a,7-tetra-(hydro)-6-(methyl)-4H-dibenzo[de,g]quinoline-10,11-di-(ol){apomorphine}; assay: Inhibition of apomorphine-induced climbing according to Puech et al.; assay type: in vivo
# Experimental: as §3
# rats [7] = assay: Elevated plus-maze test (Pellow), anxiolytic activity; assay type: in vivo; details: Rattus norvegicus, ip, read-out: Minimal effective dose [MED] Elevated + Maze
# Description: as §2
# The anxiolytic activity of these compounds was investigated in the elevated plus maze test. Male rats belonging to the Sprague Dawley strain and weighing 220 to 260 g were used as test animals. The test was carried out with the aid of a wooden plus-shaped maze elevated to a height of 50 cm and containing two enclosed and two open arms (50 cm long and 15 cm wide). After 60 minutes pretreatment the animals were placed into the maze and observed for 5 minutes. The drug effect was expressed as percent increase of the time spent on the open arms and number of open arm entries. The minimum effective dose (MED) which caused a significant increase of the time spent on the open arms was calculated for every substance [Pelow, S., Chopin, P., File, S.E., Briley, M.: J. Neurosci. Methods 14, 149 to 167 [1985]).
# mice [8] = assay: Fighting behaviour method of Tedeschi, antiaggressive effect; assay type: in vivo; details: Mus musculus, po, read-out: ED50 Fighting behaviour
# Description: as §2
# [9] = test system: convulsions caused by 6,7,8,9-tetrahydro-5H-tetrazoloazepine [pentetrazole]; assay: Inhibition of pentetrazole-induced convulsions (modified method of Benziger and Hane); assay type: in vivo; details: Mus musculus, po, mice, read-out: ID50 (the source's name)
# Experimental: The inhibiting effect against convulsions caused by 6,7,8,9-tetrahydro-5H-tetrazoloazepine [pentetrazole] was defined by the modified method of Benziger and Hane. Groups of male and female mice belonging to the NMRI strain and weighing 20 to 25 g were used. The tonic extensor convulsions of the hind limbs caused by intraperitoneally administered 125 mg/kg of 6,7,8,9-tetrahydro-5H-tetrazoloazepine [pentetrazole] were registered on the animals of groups consisting of 6 to 12 animals. The test compounds and the carrier were administered 1 hour before administering the 6,7,8,9-tetrahydro-5H-tetrazoloazepine [pentetrazole] (Benziger, R., Hane, D.: Arch. Int. Pharmacodyn. 167, 245 [1967]).
# [10] = Cataleptic effect in mice (Schlichtegroll); assay type: in vivo; details: mouse, in vivo, Tables III and IV compared, read-out: dose causing catalepsy on mice relative to the spontaneous motor activity (SMA) decreasing ED50 dose
# Experimental: as §1
# [11] = Mus musculus, po; read-out: Spontaneous motor activity SMA ED50
# [12] = po; read-out: {apomorphine} Climbing ED50
# [13] = Mus musculus, po, read-out: Spontaneous motor activity SMA ED50
# [14] = po, read-out: {apomorphine} Climbing ED50
Structure (SMILES),Catalepsy in rats Minimal effective dose [MED] (Catalepsy in rats),minimal effective dose (rats [1]; rats),Catalepsy in mice Minimal effective dose [MED] (Catalepsy in mice),Ki [2],Behaviour ([4]; 300 mg/kg i.p.),Behaviour ([4]; 1000 mg/kg p.o.),acute toxicity (dead/treated animals) (mice [5]; 300 mg/kg i.p.),acute toxicity (dead/treated animals) (mice [5]; 1000 mg/kg p.o.),"ED50 [6, 12]",other results
"COc1ccc(C=CC2=NN=C(C)Cc3cc(OC)c(OC)cc32)cc1OC [Example 3, 1-[3',4'-Di-(methoxy)-styryl]-4-[methyl]-7,8-di-[methoxy]-5H-2,3-benzodiazepine]",>100 mg/kg,0.1 mg/kg,100 mg/kg,11 nM,+ +,+ +,5/6,5/6,6.7 mg/kg,"ED50 [3, 11]: 8.2 mg/kg"
"COc1cc2c(cc1OC)C(C=Cc1ccc(N(C)C)cc1)=NN=C(C)C2 [Example 4, 1-[4'-(Dimethylamino)-styryl)-4-[methyl]-7,8-di-[methoxy]-5H-2,3-benzodiazepine]",>100 mg/kg,0.3 mg/kg,>100 mg/kg,11 nM,+ +,+ +,1/5,1/5,9.1 mg/kg,"minimal effective dose (rats [7]; rats): 5 mg/kg; ED50 [3, 11]: 4.1 mg/kg; ED50 (mice [8]; mice): 7.4 mg/kg"
"COc1ccc(C=CC2=NN=C(C)Cc3cc(OC)c(OC)cc32)c(OC)c1 [Example 5, 1-[2',4'-Di-(methoxy)-styryl)-4-[methyl]-7,8-di-[methoxy]-5H-2,3-benzodiazepine]",,,,18 nM,+ +,+ +,0/5,0/5,,minimal effective dose (rats [7]; rats): 1.25 mg/kg; ED50 (mice [8]; mice): 15 mg/kg
COc1cc2c(cc1OC)C(C=Cc1cc(OC)c(OC)c(OC)c1)=NN=C(C)C2 [Example 6],>100 mg/kg,1 mg/kg,>100 mg/kg,11 nM,+,+,0/6,0/6,15 mg/kg,"ED50 [3, 11]: 9.3 mg/kg"
COc1cc2c(cc1OC)C(C=Cc1ccccc1F)=NN=C(C)C2 [Example 10],>100 mg/kg,3 mg/kg,>100 mg/kg,9 nM,+,+,0/6,0/6,,
COc1cc2c(cc1OC)C(C=Cc1ccc(C#N)cc1)=NN=C(C)C2 [Example 57],>100 mg/kg,1 mg/kg,>100 mg/kg,18 nM,,,,,,
COc1cc2c(cc1OC)C(C=Cc1cccs1)=NN=C(C)C2 [Example 70],>100 mg/kg,0.3 mg/kg,>100 mg/kg,13 nM,+ +,+,2/6,0/6,,
"COc1cc2c(cc1OC)C(C=Cc1ccc(N)cc1)=NN=C(C)C2 [Example 73, 1-[4'-(Amino)-styryl]-4-[methyl]-7,8-di-[methoxy]-5H-2,3-benzodiazepine]",,,,11 nM,,,,,1.8 mg/kg,minimal effective dose (rats [7]; rats): 2.5 mg/kg; ED50 (mice [8]; mice): 6.4 mg/kg
"COc1cc2c(cc1OC)C(C=Cc1ccc(NC(C)=O)cc1)=NN=C(C)C2 [Example 84, 1-[4'-(Acetylamino)-styryl]-4-[methyl]-7,8-di-[methoxy]-5H-2,3-benzodiazepine]",,,,5 nM,+ +,+ +,0/5,1/5,11 mg/kg,
"NC(=O)N1c2ccccc2C=Cc2ccccc21 [carbamazepine, 5H-dibenz[b,f]azepine-5-carboxamide]",,,,,,,,,,ED50 [9]: 7.1 mg/kg
"CNC1=Nc2ccc(Cl)cc2C(c2ccccc2)=[N+]([O-])C1 [chlorodiazepoxide, 7-(chloro)-2-(methylamino)-5-(phenyl)-3H-1,4-benzodiazepine-4-(oxide), reference compound]",,,,,,,,,,"minimal effective dose (rats [1]): 5 mg/kg; minimal effective dose (rats [7]): 2.5 mg/kg; ED50 [3, 13]: 56 mg/kg; ED50 (mice [8]): 9.2 mg/kg; {apomorphine} Climbing ED50 ([6]; p.o.): inactive"
"CN(C)CCCN1c2ccccc2Sc2ccc(Cl)cc21 [chlorpromazine, 2-(chloro)-10-(3'-〈dimethylamino〉-propyl)-phenothiazine, reference compound]",20 mg/kg,,10 mg/kg,,,,,,,"selectivity ratio [10]: 5; ED50 [3, 13]: 2 mg/kg; ED50 [6, 14]: 1.1 mg/kg"
"COc1cc2c(cc1OC)C(c1cccc(Cl)c1)=NN=C(C)C2 [girisopam, 1-(3'-〈chloro〉-phenyl)-4-(methyl)-7,8-di-(methoxy)-5H-2,3-benzodiazepine, reference compound]",,,,40 nM,+-,,0/6,,,"minimal effective dose (rats [1]): 10 mg/kg; minimal effective dose (rats [7]): 12.5 mg/kg; ED50 [3, 13]: 10 mg/kg; ED50 (mice [8]): 7.7 mg/kg; ED50 [6, 14]: 12 mg/kg"
"COc1cc2c(cc1OC)C(c1ccc(N)cc1)=NN=C(C)C2 [nerisopam, 1-(4'-〈amino〉-phenyl)-4-(methyl)-7,8-di-(methoxy)-5H-2,3-benzodiazepine, reference compound]",60 mg/kg,,40 mg/kg,,+ +,,5/6,,,"minimal effective dose (rats [1]): 0.3 mg/kg; minimal effective dose (rats [7]): 0.3 mg/kg; ED50 [3, 13]: 2.5 mg/kg; ED50 (mice [8]): 4 mg/kg; ED50 [6, 14]: 0.9 mg/kg"
